Assay results from US9850283B2, “Macrocyclic inhibitors of the PD-1/PD-L1 and CD80(B7-1)/PD-L1 protein/protein interactions” (BRISTOL-MYERS SQUIBB COMPANY, priority 2013, dated 2017).
Read-outs that look alike come from different tables or passages of the source. Positions of bridges follow the written chain, without caps; N, C: chain ends. Non-standard residues stand in square brackets, D forms with d. Residues, ends and D or L forms follow the SMILES beside them. Hyp = O=C(O)[C@@H]1C[C@@H](O)CN1; NMeNle = CCCC[C@H](NC)C(=O)O; NMeA = CN[C@@H](C)C(=O)O; Dab = NCC[C@H](N)C(=O)O; Dap = NC[C@H](N)C(=O)O

Legend:
[1] = target: T1, Human PD-L1/PD-1 (Homo sapiens, UniProt Q9NZQ7); assay: HTRF PD-1-Ig/PD-L1-His binding assay (human PD-L1); settings: cluster symbol; read-out: HTRF IC50 cluster
T1 construct: made in house; host or cells: HEK293T
T1 sequence (Q9NZQ7 with tags, fused parts or gaps): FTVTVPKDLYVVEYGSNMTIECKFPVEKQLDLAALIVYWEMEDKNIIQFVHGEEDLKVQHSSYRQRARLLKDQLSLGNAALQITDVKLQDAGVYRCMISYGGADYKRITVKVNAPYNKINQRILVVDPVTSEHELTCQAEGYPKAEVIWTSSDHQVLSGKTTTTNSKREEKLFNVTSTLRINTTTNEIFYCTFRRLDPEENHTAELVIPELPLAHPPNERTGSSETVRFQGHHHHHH
Outline: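 Steps: truncated PD-1-Ig and PD-L1-His fusions are incubated in dPBS containing 0.1% (w/v) BSA and 0.05% (v/v) Tween-20. Detection antibodies are then added (Eu cryptate anti-Ig at 1 nM final, APC anti-His at 20 nM final), and time-resolved FRET is measured.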

[2] = target: T2, LK35.2-hPD-L1 cells / PE-labeled PD-1-Ig (Homo sapiens, UniProt Q9NZQ7); assay: LK35.2-hPD-L1 cell binding high-content screening assay; assay type: cell-based; settings: cell binding assay, cell line not given
T2 construct: expressed in transfected cells; host or cells: LK35.2 mouse B cell line
T2 sequence (Q9NZQ7 19-290): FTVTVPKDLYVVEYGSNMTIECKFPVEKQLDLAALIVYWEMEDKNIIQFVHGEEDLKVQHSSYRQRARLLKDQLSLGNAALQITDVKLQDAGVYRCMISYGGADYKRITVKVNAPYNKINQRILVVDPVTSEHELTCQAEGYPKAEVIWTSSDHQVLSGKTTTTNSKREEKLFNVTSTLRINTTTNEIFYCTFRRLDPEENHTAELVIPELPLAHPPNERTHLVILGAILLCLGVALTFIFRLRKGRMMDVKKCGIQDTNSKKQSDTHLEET
Outline: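 Readout: high-content imaging of PE-PD-1-Ig bound to LK35.2-hPD-L1 cells. Cells plated overnight (RPMI/10% FCS); compound + 1 nM PE-PD-1-Ig, 1 h, 37 °C; 3× dPBS wash before imaging.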

[3] = cluster symbol, read-out: CBA IC50 cluster

SMILES: CCCC[C@H]1C(=O)N(C)[C@@H](CCCC)C(=O)N[C@@H](CC(C)C)C(=O)N[C@H](C(=O)NCC(N)=O)CSCC(=O)N[C@@H](Cc2ccc(O)cc2)C(=O)N(C)[C@@H](C)C(=O)N[C@@H](CC(N)=O)C(=O)N2CCC[C@H]2C(=O)N[C@@H](Cc2c[nH]cn2)C(=O)N[C@@H](CCCCN)C(=O)N2C[C@H](O)C[C@H]2C(=O)N[C@@H](Cc2c[nH]c3ccccc23)C(=O)N[C@@H](CCCCN)C(=O)N[C@@H](Cc2c[nH]c3ccccc23)C(=O)N1C [Example 5089] ({CH2CO}-Y[NMeA]NPHK[Hyp]WKW[NMeNle][NMeNle]LCG-NH2; thioether N-14)
- IC50 [1]: 0.385 to 6.74 nM
- IC50 [2, 3]: 0.158 to 4.71 nM

SMILES: CCCC[C@H]1C(=O)N(C)[C@@H](CCCC)C(=O)N[C@@H](CC(C)C)C(=O)N[C@H](C(=O)NCC(N)=O)CSCC(=O)N[C@@H](Cc2ccc(O)cc2)C(=O)N(C)[C@@H](C)C(=O)N[C@@H](CCN)C(=O)N2CCC[C@H]2C(=O)N[C@@H](Cc2c[nH]cn2)C(=O)N[C@@H](CCC(=O)O)C(=O)N2C[C@H](O)C[C@H]2C(=O)N[C@@H](Cc2c[nH]c3ccccc23)C(=O)N[C@@H](CCN)C(=O)N[C@@H](Cc2c[nH]c3ccccc23)C(=O)N1C [Example 5090] ({CH2CO}-Y[NMeA][Dab]PHE[Hyp]W[Dab]W[NMeNle][NMeNle]LCG-NH2; thioether N-14)
- IC50 [1]: 0.385 to 6.74 nM
- IC50 [2, 3]: 4.78 to 72.9 nM

SMILES: CCCC[C@H]1C(=O)N(C)[C@@H](CCCC)C(=O)N[C@@H](CCN)C(=O)N[C@H](C(=O)NCC(N)=O)CSCC(=O)N[C@@H](Cc2ccc(O)cc2)C(=O)N(C)[C@@H](C)C(=O)N[C@@H](CCN)C(=O)N2CCC[C@H]2C(=O)N[C@@H](Cc2c[nH]cn2)C(=O)N[C@@H](CCC(=O)O)C(=O)N2C[C@H](O)C[C@H]2C(=O)N[C@@H](Cc2c[nH]c3ccccc23)C(=O)N[C@@H](C(C)C)C(=O)N[C@@H](Cc2c[nH]c3ccccc23)C(=O)N1C [Example 5091] ({CH2CO}-Y[NMeA][Dab]PHE[Hyp]WVW[NMeNle][NMeNle][Dab]CG-NH2; thioether N-14)
- IC50 [1]: 6.76 to 30.3 nM
- IC50 [2, 3]: 4.78 to 72.9 nM

SMILES: CCCC[C@H]1C(=O)N(C)[C@@H](CCCC)C(=O)N[C@@H](CCCNC(=N)N)C(=O)N[C@H](C(=O)NCC(N)=O)CSCC(=O)N[C@@H](Cc2ccc(O)cc2)C(=O)N(C)[C@@H](C)C(=O)N[C@@H](CCN)C(=O)N2CCC[C@H]2C(=O)N[C@@H](Cc2c[nH]cn2)C(=O)N[C@@H](CCC(N)=O)C(=O)N2C[C@H](O)C[C@H]2C(=O)N[C@@H](Cc2c[nH]c3ccccc23)C(=O)N[C@@H](CO)C(=O)N[C@@H](Cc2c[nH]c3ccccc23)C(=O)N1C [Example 5092] ({CH2CO}-Y[NMeA][Dab]PHQ[Hyp]WSW[NMeNle][NMeNle]RCG-NH2; thioether N-14)
- IC50 [1]: 6.76 to 30.3 nM
- IC50 [2, 3]: 4.78 to 72.9 nM

SMILES: CCCC[C@H]1C(=O)N(C)[C@@H](CCCC)C(=O)N[C@@H](CCCNC(=N)N)C(=O)N[C@H](C(=O)NCC(N)=O)CSCC(=O)N[C@@H](Cc2ccc(O)cc2)C(=O)N(C)[C@@H](C)C(=O)N[C@@H](CCN)C(=O)N2CCC[C@H]2C(=O)N[C@@H](Cc2c[nH]cn2)C(=O)N[C@@H](CC(C)C)C(=O)N2C[C@H](O)C[C@H]2C(=O)N[C@@H](Cc2c[nH]c3ccccc23)C(=O)N[C@@H](CO)C(=O)N[C@@H](Cc2c[nH]c3ccccc23)C(=O)N1C [Example 5094] ({CH2CO}-Y[NMeA][Dab]PHL[Hyp]WSW[NMeNle][NMeNle]RCG-NH2; thioether N-14)
- IC50 [1]: 0.385 to 6.74 nM
- IC50 [2, 3]: 4.78 to 72.9 nM

SMILES: CCCC[C@H]1C(=O)N(C)[C@@H](CCCC)C(=O)N[C@@H](CC(C)C)C(=O)N[C@H](C(=O)NCC(N)=O)CSCC(=O)N[C@@H](Cc2ccc(O)cc2)C(=O)N(C)[C@@H](C)C(=O)N[C@@H](CC(=O)O)C(=O)N2CCC[C@H]2C(=O)N[C@@H](Cc2c[nH]cn2)C(=O)N[C@@H](CCCCN)C(=O)N2C[C@H](O)C[C@H]2C(=O)N[C@@H](Cc2c[nH]c3ccccc23)C(=O)N[C@@H](CCCCN)C(=O)N[C@@H](Cc2c[nH]c3ccccc23)C(=O)N1C [Example 5095] ({CH2CO}-Y[NMeA]DPHK[Hyp]WKW[NMeNle][NMeNle]LCG-NH2; thioether N-14)
- IC50 [1]: 0.385 to 6.74 nM
- IC50 [2, 3]: 0.158 to 4.71 nM

SMILES: CCCC[C@H]1C(=O)N(C)[C@@H](CCCC)C(=O)N[C@@H](CC(=O)O)C(=O)N[C@H](C(=O)NCC(N)=O)CSCC(=O)N[C@@H](Cc2ccc(O)cc2)C(=O)N(C)[C@@H](C)C(=O)N[C@@H](CC(=O)O)C(=O)N2CCC[C@H]2C(=O)N[C@@H](Cc2c[nH]cn2)C(=O)N[C@@H](CCCCN)C(=O)N2C[C@H](O)C[C@H]2C(=O)N[C@@H](Cc2c[nH]c3ccccc23)C(=O)N[C@@H](CCCCN)C(=O)N[C@@H](Cc2c[nH]c3ccccc23)C(=O)N1C [Example 5096] ({CH2CO}-Y[NMeA]DPHK[Hyp]WKW[NMeNle][NMeNle]DCG-NH2; thioether N-14)
- IC50 [1]: 0.385 to 6.74 nM
- IC50 [2, 3]: 0.158 to 4.71 nM

SMILES: CCCC[C@H]1C(=O)N(C)[C@@H](CCCC)C(=O)N[C@@H](CO)C(=O)N[C@H](C(=O)NCC(N)=O)CSCC(=O)N[C@@H](Cc2ccc(O)cc2)C(=O)N(C)[C@@H](C)C(=O)N[C@@H](CCN)C(=O)N2CCC[C@H]2C(=O)N[C@@H](Cc2c[nH]cn2)C(=O)N[C@@H](CCC(=O)O)C(=O)N2C[C@H](O)C[C@H]2C(=O)N[C@@H](Cc2c[nH]c3ccccc23)C(=O)N[C@@H](C(C)C)C(=O)N[C@@H](Cc2c[nH]c3ccccc23)C(=O)N1C [Example 5097] ({CH2CO}-Y[NMeA][Dab]PHE[Hyp]WVW[NMeNle][NMeNle]SCG-NH2; thioether N-14)
- IC50 [1]: 6.76 to 30.3 nM
- IC50 ([2]; value given instead of cluster, read-out: CBA IC50 value): 74.3 nM

SMILES: CCCC[C@H]1C(=O)N(C)[C@@H](CCCC)C(=O)N[C@@H](CCC(=O)O)C(=O)N[C@H](C(=O)NCC(N)=O)CSCC(=O)N[C@@H](Cc2ccc(O)cc2)C(=O)N(C)[C@@H](C)C(=O)N[C@@H](CC(=O)O)C(=O)N2CCC[C@H]2C(=O)N[C@@H](Cc2c[nH]cn2)C(=O)N[C@@H](CCCCN)C(=O)N2C[C@H](O)C[C@H]2C(=O)N[C@@H](Cc2c[nH]c3ccccc23)C(=O)N[C@@H](CO)C(=O)N[C@@H](Cc2c[nH]c3ccccc23)C(=O)N1C [Example 5098] ({CH2CO}-Y[NMeA]DPHK[Hyp]WSW[NMeNle][NMeNle]ECG-NH2; thioether N-14)
- IC50 [1]: 0.385 to 6.74 nM
- IC50 [2, 3]: 4.78 to 72.9 nM

SMILES: CCCC[C@H]1C(=O)N(C)[C@@H](CCCC)C(=O)N[C@@H](CCC(=O)O)C(=O)N[C@H](C(=O)NCC(N)=O)CSCC(=O)N[C@@H](Cc2ccc(O)cc2)C(=O)N(C)[C@@H](C)C(=O)N[C@@H](CC(N)=O)C(=O)N2CCC[C@H]2C(=O)N[C@@H](Cc2c[nH]cn2)C(=O)N[C@@H](CCCCN)C(=O)N2C[C@H](O)C[C@H]2C(=O)N[C@@H](Cc2c[nH]c3ccccc23)C(=O)N[C@@H](CCCCN)C(=O)N[C@@H](Cc2c[nH]c3ccccc23)C(=O)N1C [Example 5100] ({CH2CO}-Y[NMeA]NPHK[Hyp]WKW[NMeNle][NMeNle]ECG-NH2; thioether N-14)
- IC50 [1]: 6.76 to 30.3 nM
- IC50 [2, 3]: 0.158 to 4.71 nM

SMILES: CCCC[C@H]1C(=O)N(C)[C@@H](CCCC)C(=O)N[C@@H](CN)C(=O)N[C@H](C(=O)NCC(N)=O)CSCC(=O)N[C@@H](Cc2ccc(O)cc2)C(=O)N(C)[C@@H](C)C(=O)N[C@@H](CC(=O)O)C(=O)N2CCC[C@H]2C(=O)N[C@@H](Cc2c[nH]cn2)C(=O)N[C@@H](CCC(N)=O)C(=O)N2C[C@H](O)C[C@H]2C(=O)N[C@@H](Cc2c[nH]c3ccccc23)C(=O)N[C@@H](CO)C(=O)N[C@@H](Cc2c[nH]c3ccccc23)C(=O)N1C [Example 5101] ({CH2CO}-Y[NMeA]DPHQ[Hyp]WSW[NMeNle][NMeNle][Dap]CG-NH2; thioether N-14)
- IC50 [1]: 0.385 to 6.74 nM
- IC50 [2, 3]: 0.158 to 4.71 nM

SMILES: CCCC[C@H]1C(=O)N(C)[C@@H](CCCC)C(=O)N[C@@H](CCCNC(=N)N)C(=O)N[C@H](C(=O)NCC(N)=O)CSCC(=O)N[C@@H](Cc2ccc(O)cc2)C(=O)N(C)[C@@H](C)C(=O)N[C@@H](CCCCN)C(=O)N2CCC[C@H]2C(=O)N[C@@H](Cc2c[nH]cn2)C(=O)N[C@@H](CC(=O)O)C(=O)N2C[C@H](O)C[C@H]2C(=O)N[C@@H](Cc2c[nH]c3ccccc23)C(=O)N[C@@H](CO)C(=O)N[C@@H](Cc2c[nH]c3ccccc23)C(=O)N1C [Example 5102] ({CH2CO}-Y[NMeA]KPHD[Hyp]WSW[NMeNle][NMeNle]RCG-NH2; thioether N-14)
- IC50 [1]: 6.76 to 30.3 nM
- IC50 [2, 3]: 4.78 to 72.9 nM

SMILES: CCCC[C@H]1C(=O)N(C)[C@@H](CCCC)C(=O)N[C@@H](CC(=O)O)C(=O)N[C@H](C(=O)NCC(N)=O)CSCC(=O)N[C@@H](Cc2ccc(O)cc2)C(=O)N(C)[C@@H](C)C(=O)N[C@@H](CC(N)=O)C(=O)N2CCC[C@H]2C(=O)N[C@@H](Cc2c[nH]cn2)C(=O)N[C@@H](CCC(N)=O)C(=O)N2C[C@H](O)C[C@H]2C(=O)N[C@@H](Cc2c[nH]c3ccccc23)C(=O)N[C@@H](CO)C(=O)N[C@@H](Cc2c[nH]c3ccccc23)C(=O)N1C [Example 5103] ({CH2CO}-Y[NMeA]NPHQ[Hyp]WSW[NMeNle][NMeNle]DCG-NH2; thioether N-14)
- IC50 [1]: 6.76 to 30.3 nM
- IC50 [2, 3]: 4.78 to 72.9 nM

SMILES: CCCC[C@H]1C(=O)N(C)[C@@H](CCCC)C(=O)N[C@@H](CCN)C(=O)N[C@H](C(=O)NCC(N)=O)CSCC(=O)N[C@@H](Cc2ccc(O)cc2)C(=O)N(C)[C@@H](C)C(=O)N[C@@H](CCN)C(=O)N2CCC[C@H]2C(=O)N[C@@H](Cc2c[nH]cn2)C(=O)N[C@@H](CCC(=O)O)C(=O)N2C[C@H](O)C[C@H]2C(=O)N[C@@H](Cc2c[nH]c3ccccc23)C(=O)N[C@@H](CCN)C(=O)N[C@@H](Cc2c[nH]c3ccccc23)C(=O)N1C [Example 5104] ({CH2CO}-Y[NMeA][Dab]PHE[Hyp]W[Dab]W[NMeNle][NMeNle][Dab]CG-NH2; thioether N-14)
- IC50 [1]: 0.385 to 6.74 nM
- IC50 [2, 3]: 0.158 to 4.71 nM
